{"source": "patent US20110123466A1", "about": "“PHARMACEUTICAL AND/OR COSMETIC COMPOSITION CONTAINING AN ACTIVE PRINCIPLE ACTIVATOR OF CYTOCHROME C” (SOCIETE D'EXTRACTION DES PRINCIPES ACTIFS S.A (ISP …, priority 2007, published 2011)", "key": {"[1]": {"system": "cytochrome C", "assay": "Expression of cytochrome C by immunotransfer (Western Blot)", "type": "cell-based", "conditions": "human dermal fibroblasts; 1% solution of a 50-ppm mother-solution; 72 hours", "experimental": "The aim of this study was to determine the effect of the SEQ ID No. 2 peptide on the expression of cytochrome C. For this, the quantity of cytochrome C was evaluated by the immunotransfer (or Western Blot) technique.\nProtocol: Human dermal fibroblasts were treated with a 1% solution of a 50-ppm SEQ ID No. 2 peptide mother-solution for 72 hours. The cells were then lysed and homogenized by sonication, then centrifuged for 10 minutes at 1000 g. The samples, standardized for their protein concentration (BCA measurement kit, Pierce) were subjected to electrophoresis on 4-12% bis-tris gel (Invitrogen). After electro-transfer, the membranes were incubated overnight with an anticytochrome C antibody, diluted to 1/500 (mouse monoclonal anti-cytochrome C, Tebu). A secondary antibody, coupled to the peroxidase and diluted to 1/5000 was then used (peroxidase conjugated F(ab′)2, goat antimouse, Immunotech). The chemiluminescent signal was then quantified using the Supersignal West Femto Trial kit and read in a reading chamber (MultiImage Light Cabinet, Immunotech Corporation)."}, "[2]": {"system": "cytochrome oxidase", "assay": "Enzymatic activity of cytochrome oxidase (Cytocox 1 kit) in treated fibroblasts", "type": "cell-based", "conditions": "normal human fibroblasts, 1% solution of a 50-ppm solution, compared with untreated cells", "experimental": "The aim of this study was to determine the effect of the SEQ ID No. 2 peptide on mitochondrial activity. For this, the total enzymatic (mitochondrial) activity of cytochrome oxidase was measured.\nProtocol: Normal human fibroblasts were treated with a 1% solution of a 50-ppm solution containing the SEQ ID No. 2 peptide, representative of the peptide family according to the invention, for 3 hours and 24 hours. The cells were collected, rinsed, and then lysed by sonication. A first centrifuging was performed to eliminate the principal cellular debris, and the supernatant was then centrifuged again at 10,000 g for 10 minutes. The enzymatic activity was measured in the supernatant and/or in the second residue, by a biochemical method using the Cytocox 1 kit (Sigma-Aldrich), then standardized for protein content (measured with the BCA kit, Pierce)."}, "[3]": {"system": "Dermal fibroblasts", "assay": "Synthesis of intracellular ATP (ATP Bioluminescence Assay Kit HS II)", "type": "cell-based", "conditions": "1% solution of a 50 ppm peptide solution, compared to untreated cells", "experimental": "Protocol: This study was conducted using an ATP Bioluminescence Assay Kit HS II (Roche Applied Science). Dermal fibroblasts were treated with a 1% solution of a 50 ppm solution containing the SEQ ID No. 2 peptide, representative of the peptide family according to the invention, for a period of 1 to 3 hours. At the end of incubation, the tubes were rinsed with 2 ml of cold PBS before adding 250 μl of a lysis buffer provided in the kit. The cells of each tubes were then scraped up and collected in 14-ml tubes. Each tube was rinsed with 2×500 μl of cold PBS and the whole was collected again in the respective tubes. […] The ATP measurement was performed on these samples: 50 μl of this dilution was placed in a Luma cuvette and […]. After 10 seconds, the luminescence reading was begun. The values were standardized relative to the quantity of proteins for each sample. The measurements were made using the Biocounter M2010A Luma®/3M equipment."}, "[4]": {"system": "dermal fibroblast mitochondria", "assay": "Mitochondrial membrane potential, JC-1 marking, with or without H2O2 or UVB stress", "type": "cell-based, human", "experimental": "The aim of this study was to determine the protective effect of the SEQ ID No. 2 peptide with respect to dermal fibroblast mitochondria subjected to an oxidative stress caused by oxygenated water (H2O2) or UVB irradiation. A marker for the membrane potential of mitochondria (JC-1) was used for this. JC-1 is a marker that emits different fluorescences depending on the level of polarization of the mitochondrial membrane.\nProtocol: Human dermal fibroblasts were treated with a 1% solution of a 50-ppm SEQ ID No. 2 peptide mother-solution for 96 hours and then subjected to an oxidative stress caused by 2 mM of H2O2 for 30 min. or to UVB irradiation at 50 mJ/cm^2. Controls not treated with the peptide or H2O2 or not irradiated were performed under the same conditions. At the end of the experiment, the cells were washed, fixed, and subjected to marking with a 0.2 μg/ml solution of JC-1 (Molecular Probes®) in order to disclose the membrane potential of the mitochondria."}}, "note": "Ends that are not written are not given here."}
{"substance": "Tyr-Leu-Lys-Lys-Ala-NH2 (YLKKA-NH2) [SEQ ID No. 2]", "values": [{"measurement": "expression of cytochrome C", "setting": "[1]", "value": "clear increase"}, {"measurement": "increase in enzymatic activity of cytochrome oxidase", "setting": "[2]; 24 hours after application", "value": 750, "unit": "%"}, {"measurement": "increase in enzymatic activity of cytochrome oxidase", "setting": "[2]; after 3 hours", "value": 150, "unit": "%"}, {"measurement": "increase in the amount of intracellular ATP", "setting": "[3]; after 3 hours", "value": 27, "unit": "%"}, {"measurement": "increase in the amount of intracellular ATP", "setting": "[3]; after one hour", "value": 41, "unit": "%"}, {"measurement": "mitochondrial membrane potential (JC-1 red fluorescence) under stress", "setting": "[4]; peptide for 96 hours, then 2 mM H2O2 for 30 min or UVB 50 mJ/cm^2", "value": "more marked red fluorescence"}, {"measurement": "mitochondrial membrane potential (JC-1 red fluorescence)", "setting": "[4]; unstressed human dermal fibroblasts, 1% solution of a 50-ppm mother-solution, 96 hours", "value": "elevated membrane potential, greater than in the control cells"}]}
